Values quoted from earlier work, collected in patent US20040005347A1, “Composition comprising cocoa” (N. V. NUTRICIA, priority 2001, published 2004).

Experiments:
serotonin levels = conditions: in vitro
PMS related symptoms = conditions: supplementation

Row | Structure (SMILES) | serotonin levels (serotonin levels) | PMS related symptoms, especially those related to mood (PMS related symptoms)
1 | Cn1c(=O)c2c(ncn2C)n(C)c1=O [caffeine] | increase | –
2 | [Mg+2] [Magnesium] | – | improves
